According to patent publication US8802663B2, “Pyrazole oxadiazole derivatives as S1P1 agonists” (Merck Serono SA, priority 2009, dated 2014):
Where a name gives a salt, the structure may show the parent alone.

Molecular target: S1P1 (Homo sapiens (Human), UniProt P21453)
Test: 35S-GTPγS binding, membranes from CHO cells expressing S1P1
Assay type: biochemical
Conditions: CHO cell membranes
Procedure: Cells were suspended in 50 mM TRIS, pH 7.4, 2 mM EDTA, 250 mM Sucrose (buffer A) and 1× Complete protease inhibitor cocktail (Roche), and disrupted at 4° C. by N2 decompression using a cell disruption bomb (Parr Instrument). Following centrifugation at 1000 RPM for 10 min at 4° C., the supernatant was suspended in buffer A and centrifuged again at 19000 RPM for 60 min at 4° C. The pellet was then suspended in 10 mM HEPES, pH 7.4, 1 mM EDTA, 250 mM Sucrose (Buffer B), and 1× Complete EDTA-free protease inhibitor cocktail and homogenized using a potter. Membranes were flash frozen in liquid N2 and stored at −80° C. [33P]sphingosine 1-phosphate (3000 Ci/mmol; American Radiolabeled Chemicals, Inc.) was added to test compounds in DMSO. […] Specific binding was calculated by subtracting remaining radioactivity in the presence of 1000-fold excess of unlabeled SIP. Binding data were analyzed using the GraphPad Prism program.
After 60 min incubation at 30° C. on a shaker, plates were centrifuged for 10 min at 2000 RPM. […] Triplicate samples were averaged and expressed as % response relative to S1P activation in absence of compound (n=2).

S1P1, sequence (P21453 whole entry, species assumed): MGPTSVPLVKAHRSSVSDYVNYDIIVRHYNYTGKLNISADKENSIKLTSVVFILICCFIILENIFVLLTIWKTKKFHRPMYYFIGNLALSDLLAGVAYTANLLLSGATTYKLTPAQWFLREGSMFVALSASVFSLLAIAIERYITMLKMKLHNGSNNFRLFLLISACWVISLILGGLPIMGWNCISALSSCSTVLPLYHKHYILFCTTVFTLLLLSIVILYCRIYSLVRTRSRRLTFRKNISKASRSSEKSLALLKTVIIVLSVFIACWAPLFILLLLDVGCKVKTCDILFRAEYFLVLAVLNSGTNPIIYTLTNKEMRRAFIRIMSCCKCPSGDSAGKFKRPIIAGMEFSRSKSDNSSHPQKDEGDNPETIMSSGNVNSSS

EC50	Compound
157 nM	CS(=O)(=O)c1cccc(-c2nc(-c3cnn(C4CCCCC4)c3-c3ccccc3)no2)c1 [Example 58, 3-(1-cyclohexyl-5-phenyl-1H-pyrazol-4-yl)-5-[3-(methylsulfonyl)phenyl]-1,2,4-oxadiazole]
335 nM	FC(F)(F)c1cccc(-c2nc(-c3cnn(C4CCCCC4)c3-c3ccccc3)no2)c1 [Example 59, 3-(1-cyclohexyl-5-phenyl-1H-pyrazol-4-yl)-5-[3-(trifluoromethyl)phenyl]-1,2,4-oxadiazole]
320 nM	Cc1c(-c2nc(-c3cc(F)ccc3F)no2)cnn1-c1ccccc1F [Example 60, 3-(2,5-difluorophenyl)-5-[1-(2-fluorophenyl)-5-methyl-1H-pyrazol-4-yl]-1,2,4-oxadiazole]
22 nM	CN(CC(=O)O)Cc1ccc(-c2noc(-c3cnn(C4CCCCC4)c3-c3ccncc3)n2)cc1 [Example 61, N-{4-[5-(1-cyclohexyl-5-pyridin-4-yl-1H-pyrazol-4-yl)-1,2,4-oxadiazol-3-yl]benzyl}-N-methylglycine]
3 nM	OC1CN(Cc2ccc(-c3noc(-c4cnn(C5CCCCC5)c4-c4ccncc4)n3)cc2)C1 [Example 62, 1-{4-[5-(1-cyclohexyl-5-pyridin-4-yl-1H-pyrazol-4-yl)-1,2,4-oxadiazol-3-yl]benzyl}azetidin-3-ol]
428 nM	CC(C)Cn1ncc(-c2nc(-c3ccc(CO)cc3)no2)c1C1CCOCC1 [Example 63]
99 nM	COCc1c(-c2nc(-c3ccc(CN4CCC(C(=O)O)CC4)cc3)no2)cnn1C1CCCCC1 [Example 64, 1-(4-{5-[1-cyclohexyl-5-(methoxymethyl)-1H-pyrazol-4-yl]-1,2,4-oxadiazol-3-yl}benzyl)piperidine-4-carboxylic acid]
1 nM	O=C(O)CCNCc1ccc(-c2noc(-c3cnn(C4CCCCC4)c3-c3ccncc3)n2)cc1 [Example 65, N-{4-[5-(1-cyclohexyl-5-pyridin-4-yl-1H-pyrazol-4-yl)-1,2,4-oxadiazol-3-yl]benzyl}-beta-alanine]
13 nM	c1cc(-c2c(-c3nc(-c4ccc(CN5CCC5)cc4)no3)cnn2C2CCCCC2)ccn1 [Example 66, 4-(4-{3-[4-(azetidin-1-ylmethyl)phenyl]-1,2,4-oxadiazol-5-yl}-1-cyclohexyl-1H-pyrazol-5-yl)pyridine]
1.4 nM	COCc1c(-c2nc(-c3ccc(CNCCC(=O)O)cc3)no2)cnn1C1CCCCC1 [Example 67, N-(4-{5-[1-cyclohexyl-5-(methoxymethyl)-1H-pyrazol-4-yl]-1,2,4-oxadiazol-3-yl}benzyl)-beta-alanine]
0.3 nM	COCc1c(-c2nc(-c3ccc(CN4CC(C(=O)O)C4)cc3)no2)cnn1C1CCCCC1 [Example 68, 1-(4-{5-[1-cyclohexyl-5-(methoxymethyl)-1H-pyrazol-4-yl]-1,2,4-oxadiazol-3-yl}benzyl)azetidine-3-carboxylic acid]
437 nM	COCc1c(-c2nc(-c3ccc(CO)cc3)no2)cnn1CC(C)C [Example 69, (4-{5-[1-isobutyl-5-(methoxymethyl)-1H-pyrazol-4-yl]-1,2,4-oxadiazol-3-yl}phenyl)methanol]
82 nM	OCc1ccc(-c2noc(-c3cnn(C4CCCCC4)c3C3CCOCC3)n2)cc1 [Example 70, (4-{5-[1-cyclohexyl-5-(tetrahydro-2H-pyran-4-yl)-1H-pyrazol-4-yl]-1,2,4-oxadiazol-3-yl}phenyl)methanol]
6 nM	O=C(O)C1CCN(Cc2ccc(-c3noc(-c4cnn(C5CCCCC5)c4-c4ccncc4)n3)cc2)CC1 [Example 71, 1-{4-[5-(1-cyclohexyl-5-pyridin-4-yl-1H-pyrazol-4-yl)-1,2,4-oxadiazol-3-yl]benzyl}piperidine-4-carboxylic acid]
119 nM	COCc1c(-c2nc(-c3ccc(CN(C)CC(=O)O)cc3)no2)cnn1C1CCCCC1 [Example 72, N-(4-{5-[1-cyclohexyl-5-(methoxymethyl)-1H-pyrazol-4-yl]-1,2,4-oxadiazol-3-yl}benzyl)-N-methylglycine]
30 nM	COCc1c(-c2nc(-c3ccc(CN4CC(O)C4)cc3)no2)cnn1C1CCCCC1 [Example 73, 1-(4-{5-[1-cyclohexyl-5-(methoxymethyl)-1H-pyrazol-4-yl]-1,2,4-oxadiazol-3-yl}benzyl)azetidin-3-ol]
86 nM	COCc1c(-c2nc(-c3ccc(CN4CCC(O)C4)cc3)no2)cnn1C1CCCCC1 (centres unmarked) [Example 74, 1-(4-{5-[1-cyclohexyl-5-(methoxymethyl)-1H-pyrazol-4-yl]-1,2,4-oxadiazol-3-yl}benzyl)pyrrolidin-3-ol]
63 nM	COCc1c(-c2nc(-c3ccc(CN(C)C)cc3)no2)cnn1C1CCCCC1 [Example 75, 1-(4-{5-[1-cyclohexyl-5-(methoxymethyl)-1H-pyrazol-4-yl]-1,2,4-oxadiazol-3-yl}phenyl)-N,N-dimethylmethanamine]

EC50	Compound
23 nM	COCc1c(-c2nc(-c3ccc(CN4CC(C(=O)O)C4)cc3)no2)cnn1CC(C)C [Example 76, 1-(4-{5-[1-isobutyl-5-(methoxymethyl)-1H-pyrazol-4-yl]-1,2,4-oxadiazol-3-yl}benzyl)azetidine-3-carboxylic acid]
837 nM	CC(C)Cn1ncc(-c2nc(-c3ccc(CN(C)CC(=O)O)cc3)no2)c1-c1ccncc1 [Example 77, N-{4-[5-(1-isobutyl-5-pyridin-4-yl-1H-pyrazol-4-yl)-1,2,4-oxadiazol-3-yl]benzyl}-N-methylglycine]
67 nM	COCCNCc1ccc(-c2noc(-c3cnn(C4CCCCC4)c3-c3ccncc3)n2)cc1 [Example 78, N-(4-(5-(1-cyclohexyl-5-(pyridin-4-yl)-1H-pyrazol-4-yl)-1,2,4-oxadiazol-3-yl)benzyl)-2-methoxyethanamine]
252 nM	CC(C)Cn1ncc(-c2nc(-c3ccc(CN4CCC(O)C4)cc3)no2)c1-c1ccncc1 (centres unmarked) [Example 80, 1-(4-(5-(1-isobutyl-5-(pyridin-4-yl)-1H-pyrazol-4-yl)-1,2,4-oxadiazol-3-yl)benzyl)pyrrolidin-3-ol, formate]
195 nM	CC(C)Cn1ncc(-c2nc(-c3ccc(CN(C)C)cc3)no2)c1-c1ccncc1 [Example 81, 1-(4-(5-(1-isobutyl-5-(pyridin-4-yl)-1H-pyrazol-4-yl)-1,2,4-oxadiazol-3-yl)phenyl)-N,N-dimethylmethanamine, formate]
156 nM	CC(C)Cn1ncc(-c2nc(-c3ccc(CN4CC(O)C4)cc3)no2)c1-c1ccncc1 [Example 82, 1-(4-(5-(1-isobutyl-5-(pyridin-4-yl)-1H-pyrazol-4-yl)-1,2,4-oxadiazol-3-yl)benzyl)azetidin-3-ol, formate]
313 nM	Cc1nn(C2CCCCC2)cc1-c1nc(-c2cc(F)ccc2F)no1 [Example 83, 5-(1-cyclohexyl-3-methyl-1H-pyrazol-4-yl)-3-(2,5-difluorophenyl)-1,2,4-oxadiazole]
288 nM	COCc1c(-c2nc(-c3ccc(CNCCC(=O)O)cc3)no2)cnn1CC(C)C [Example 84, 3-(4-(5-(1-isobutyl-5-(methoxymethyl)-1H-pyrazol-4-yl)-1,2,4-oxadiazol-3-yl)benzylamino)propanoic acid]
179 nM	CNCc1ccc(-c2noc(-c3cnn(CC(C)C)c3-c3ccncc3)n2)cc1 [Example 85, 1-(4-(5-(1-isobutyl-5-(pyridin-4-yl)-1H-pyrazol-4-yl)-1,2,4-oxadiazol-3-yl)phenyl)-N-methylmethanamine]
306 nM	Cc1c(-c2nc(-c3cc(F)ccc3F)no2)cnn1C1CCCCC1 [Example 86, 5-(1-cyclohexyl-5-methyl-1H-pyrazol-4-yl)-3-(2,5-difluorophenyl)-1,2,4-oxadiazole]
361 nM	FC(F)(F)c1cccc(-c2noc(-c3cnn(C4CCCCC4)c3C3CCOCC3)n2)c1 [Example 87, 5-(1-cyclohexyl-5-(tetrahydro-2H-pyran-4-yl)-1H-pyrazol-4-yl)-3-(3-(trifluoromethyl)phenyl)-1,2,4-oxadiazole]
47 nM	CNCc1ccc(-c2noc(-c3cnn(C4CCCCC4)c3C3CCOCC3)n2)cc1 [Example 88, 1-(4-(5-(1-cyclohexyl-5-(tetrahydro-2H-pyran-4-yl)-1H-pyrazol-4-yl)-1,2,4-oxadiazol-3-yl)phenyl)-N-methylmethanamine]
35 nM	CC(C)(C)Cn1ncc(-c2nc(-c3cccc(C(F)(F)F)c3)no2)c1-c1ccncc1 [Example 90, 5-(1-neopentyl-5-(pyridin-4-yl)-1H-pyrazol-4-yl)-3-(3-(trifluoromethyl)phenyl)-1,2,4-oxadiazole]
158 nM	Brc1ccc(-c2noc(-c3cnn(C4CCCCC4)c3-c3ccncc3)n2)cc1 [Example 92, 3-(4-bromophenyl)-5-(1-cyclohexyl-5-(pyridin-4-yl)-1H-pyrazol-4-yl)-1,2,4-oxadiazole]
301 nM	CC(C)(C)Cn1ncc(-c2nc(-c3cc(F)ccc3F)no2)c1-c1ccncc1 [Example 93, 3-(2,5-difluorophenyl)-5-(1-neopentyl-5-(pyridin-4-yl)-1H-pyrazol-4-yl)-1,2,4-oxadiazole]
387 nM	OCc1ccc(-c2noc(-c3cnn(CC4CC4)c3-c3ccncc3)n2)cc1 [Example 94, (4-(5-(1-(cyclopropylmethyl)-5-(pyridin-4-yl)-1H-pyrazol-4-yl)-1,2,4-oxadiazol-3-yl)phenyl)methanol]
96 nM	c1cc(-c2c(-c3nc(-c4ccc5nccn5c4)no3)cnn2C2CCCCC2)ccn1 [Example 95, 5-(1-cyclohexyl-5-(pyridin-4-yl)-1H-pyrazol-4-yl)-3-(imidazo[1,2-a]pyridin-6-yl)-1,2,4-oxadiazole]
